Reference: ChEMBL document CHEMBL5143637, “Design, synthesis and antibacterial activity against pathogenic mycobacteria of conjugated hydroxamic acids, hydrazides and O-alkyl/O-acyl protected hydroxamic derivatives” (Bioorg Med Chem Lett, 2022)
In brackets after ≈: the same amount, converted by molar mass.

Columns and labels:
[1] = test system: Mycobacteroides abscessus; assay: Antimycobacterial activity against Mycobacterium abscessus CIP104536T with smooth morphotype assessed as inhibition of mycobacterial growth incubated for 3 to 5 days by resazurin microtiter assay; format: functional; conditions: time 3-5 day
[2] = test system: Mycobacteroides abscessus; assay: Antimycobacterial activity against Mycobacterium abscessus CIP104536T with rough morphotype assessed as inhibition of mycobacterial growth incubated for 3 to 5 days by resazurin microtiter assay; format: functional; conditions: time 3-5 day
Mycobacterium marinum = assay: Antimycobacterial activity against Mycobacterium marinum ATCC BAA-535/M assessed as inhibition of mycobacterial growth incubated for 10 to 14 days by resazurin microtiter assay; format: functional; conditions: time 10-14 day
[3] = test system: Mycobacterium tuberculosis; assay: Antimycobacterial activity against Mycobacterium tuberculosis mc2 6230 assessed as inhibition of mycobacterial growth incubated for 10 to 14 days by resazurin microtiter assay; format: functional; conditions: time 10-14 day
[4] = Cytotoxicity against mouse BMDM cells; format: toxicity, cell-based; conditions: BMDM cells (bone marrow-derived macrophages)
[5] = test system: Mycolicibacterium smegmatis; assay: Antimycobacterial activity against wild type Mycobacterium smegmatis mc2 155 assessed as inhibition of mycobacterial growth incubated for 3 to 5 days by resazurin microtiter assay; format: functional; conditions: time 3-5 day
[6] = test system: Mycolicibacterium smegmatis; assay: Antimycobacterial activity against Mycobacterium smegmatis mc2 155 harbouring pMyC empty vector assessed as inhibition of mycobacterial growth incubated for 3 to 5 days by resazurin microtiter assay; format: functional; conditions: time 3-5 day
[7] = test system: Mycolicibacterium smegmatis; assay: Antimycobacterial activity against Mycobacterium smegmatis mc2 155 harbouring pMyC::PDFMtb overexpression mutant assessed as inhibition of mycobacterial growth incubated for 3 to 5 days by resazurin microtiter assay; format: functional; conditions: time 3-5 day
[8] = Selectivity index, ratio of MIC50 for antimycobacterial activity against Mycobacterium smegmatis mc2 155 harbouring pMyC empty vector to MIC50 for antimycobacterial activity against wild type Mycobacterium smegmatis mc2 155; format: functional
[9] = Selectivity index, ratio of MIC90 for antimycobacterial activity against Mycobacterium smegmatis mc2 155 harbouring pMyC empty vector to MIC90 for antimycobacterial activity against wild type Mycobacterium smegmatis mc2 155; format: functional
[10] = Selectivity index, ratio of MIC50 for antimycobacterial activity against Mycobacterium smegmatis mc2 155 harbouring pMyC::PDFMtb overexpression mutant to MIC50 for antimycobacterial activity against wild type Mycobacterium smegmatis mc2 155; format: functional
[11] = Selectivity index, ratio of MIC90 for antimycobacterial activity against Mycobacterium smegmatis mc2 155 harbouring pMyC::PDFMtb overexpression mutant to MIC90 for antimycobacterial activity against wild type Mycobacterium smegmatis mc2 155; format: functional
[12] = Inhibition of Mycobacterium tuberculosis H37Rv PDF expressed in Escherichia coli using N-formyl-methionine-alanine-serine as substrate incubated for 2.5 mins by fluorescence based microplate reader analysis
[13] = test system: Mycobacterium tuberculosis; assay: Antimycobacterial activity against Mycobacterium tuberculosis H37Rv assessed as inhibition of bacterial growth incubated for 8 days; format: functional; conditions: 192 h, time 8 day
BMDM = assay: (§1) Cytotoxicity against C57BL/6 mouse BMDM cells assessed as reduction in cell viability measured after 24 hrs by resazurin dye based assay; format: toxicity; conditions: mouse, bmdm, 24 h
[14] = as §1; format: toxicity; conditions: C57BL/6, mouse, BMDM cells (bone marrow-derived macrophages)

| SMILES | MIC50 [1] [µg/mL] | MIC50 [2] [µg/mL] | MIC50 (Mycobacterium marinum) [µg/mL] | MIC90 (Mycobacterium marinum) [µg/mL] | MIC50 [3] [µg/mL] | MIC90 [3] [µg/mL] | MIC50 [5] [µg/mL] | MIC90 [5] [µg/mL] | MIC50 [6] [µg/mL] | MIC90 [6] [µg/mL] | MIC50 [7] [µg/mL] | MIC90 [7] [µg/mL] | Ratio [8] | Ratio [9] | Ratio [10] | Ratio [11] | further results |
| --- | --- | --- | --- | --- | --- | --- | --- | --- | --- | --- | --- | --- | --- | --- | --- | --- | --- |
| NCC[C@H](O)C(=O)N[C@@H]1C[C@H](N)[C@@H](O[C@H]2O[C@H](CN)[C@@H](O)[C@H](O)[C@H]2O)[C@H](O)[C@H]1O[C@H]1O[C@H](CO)[C@@H](O)[C@H](N)[C@H]1O [AMIKACIN] | 2.3 (≈ 3.93 µM) | 4.3 (≈ 7.34 µM) | 0.62 (≈ 1.06 µM) | 1.7 (≈ 2.9 µM) | 0.24 (≈ 0.41 µM) | 0.37 (≈ 0.632 µM) | – | – | – | – | – | – | – | – | – | – | MIC90 [1]: 3.4 µg/mL (≈ 5.81 µM); MIC90 [2]: 5.9 µg/mL (≈ 10.1 µM); CC50 [4]: > 90 µg/mL |
| CO[C@H]1/C=C/O[C@@]2(C)Oc3c(C)c(O)c4c(O)c(c(/C=N/N5CCN(C)CC5)c(O)c4c3C2=O)NC(=O)/C(C)=C\C=C\[C@H](C)[C@H](O)[C@@H](C)[C@@H](O)[C@@H](C)[C@H](OC(C)=O)[C@@H]1C [RIFAMPIN] | – | – | – | – | – | – | 0.76 (≈ 0.924 µM) | 0.76 (≈ 0.924 µM) | 0.57 (≈ 0.693 µM) | 2.83 (≈ 3.44 µM) | 0.63 (≈ 0.766 µM) | 2.4 (≈ 2.92 µM) | 0.75 | 1.09 | 0.83 | 0.93 | – |
| CCCC[C@H](CN(O)C=O)C(=O)N1CCC[C@H]1C(=O)Nc1ccccn1 | – | – | – | – | – | – | – | – | – | – | – | – | – | – | – | – | IC50 [12]: 69.5 nM |
| NNC(=O)c1ccncc1 [ISONIAZID] | – | – | 2.8 (≈ 20.4 µM) | 9.2 (≈ 67.1 µM) | 0.07 (≈ 0.51 µM) | 0.11 (≈ 0.802 µM) | 1.4 (≈ 10.2 µM) | 3.1 (≈ 22.6 µM) | 1.3 (≈ 9.48 µM) | 2.7 (≈ 19.7 µM) | 1.2 (≈ 8.75 µM) | 2.5 (≈ 18.2 µM) | 0.9 | 0.86 | 0.84 | 0.8 | MIC [13]: 0.1 µg/mL (≈ 0.729 µM); CC50 [4]: > 20 µg/mL |
| Cl.O=C(/C=C/c1ccncc1)NO | > 100 | > 100 | 12.6 | 54 | 32.1 | 33.6 | – | – | – | – | – | – | – | – | – | – | CC50 (BMDM): < 10 µg/mL |
| NNC(=O)/C=C/c1ccc(-c2ccccc2)cc1 | > 100 | 18.9 (≈ 79.3 µM) | 22.2 (≈ 93.2 µM) | 71.5 (≈ 300 µM) | 13.1 (≈ 55 µM) | 22 (≈ 92.3 µM) | 9.6 (≈ 40.3 µM) | 53.6 (≈ 225 µM) | 7.2 (≈ 30.2 µM) | 43.8 (≈ 184 µM) | 56.6 (≈ 238 µM) | > 200 | 0.75 | 0.75 | 5.9 | > 3.7 | MIC90 [2]: > 100 µg/mL; CC50 at 24 h [14]: 125 µg/mL (≈ 525 µM) |
| NC[C@H]1O[C@H](O[C@H]2[C@H](O)[C@@H](O[C@H]3O[C@H](CO)[C@@H](O)[C@H](N)[C@H]3O)[C@H](N)C[C@@H]2N)[C@H](O)[C@@H](O)[C@@H]1O [KANAMYCIN] | – | – | – | – | – | – | 0.4 (≈ 0.826 µM) | 0.94 (≈ 1.94 µM) | 0.48 (≈ 0.991 µM) | 1.07 (≈ 2.21 µM) | 0.49 (≈ 1.01 µM) | 0.87 (≈ 1.8 µM) | 1.2 | 1.14 | 1.23 | 0.93 | – |
